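Exposure lasted 48 hours, with cells grown in 96-well plates and compounds tested at five concentrations. GI50 = concentration required for 50% inhibition of growth. TGI is the concentration that stops growth completely.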
Key:
Assay in all cases: inhibition of tumour cell growth, NCI panel, 48 h
786-0 renal = tested on: 786-0 renal
ACHN renal = tested on: ACHN renal
COLO 205 colon = tested on: COLO 205 colon
HL-60(TB) leukemia = tested on: HL-60(TB) leukemia
K-562 leukemia = tested on: K-562 leukemia
MALME-3M melanoma = tested on: MALME-3M melanoma
SN12C renal = tested on: SN12C renal
TK-10 renal = tested on: TK-10 renal
UACC-257 melanoma = tested on: UACC-257 melanoma
HOP-92 NSCLC = tested on: HOP-92 NSCLC

SMILES	TGI (786-0 renal) [µM]	TGI (ACHN renal) [µM]	TGI (COLO 205 colon) [µM]	TGI (HL-60(TB) leukemia) [µM]	TGI (K-562 leukemia) [µM]	TGI (MALME-3M melanoma) [µM]	TGI (SN12C renal) [µM]	TGI (TK-10 renal) [µM]	TGI (UACC-257 melanoma) [µM]	TGI (HOP-92 NSCLC) [µM]	GI50 (786-0 renal) [µM]	GI50 (HL-60(TB) leukemia) [µM]	GI50 (HOP-92 NSCLC) [µM]	GI50 (MALME-3M melanoma) [µM]	GI50 (TK-10 renal) [µM]	GI50 (ACHN renal) [µM]	GI50 (COLO 205 colon) [µM]	GI50 (K-562 leukemia) [µM]	GI50 (SN12C renal) [µM]	GI50 (UACC-257 melanoma) [µM]
Cc1cccc2c1C/C(=C1\CCc3c(C)cccc31)C2=O	> 100	> 100	> 100	> 100	> 100	> 100	> 100	> 100	> 100											
COc1cc([C@@H]2OC(=O)C3C2C(=O)O[C@H]3c2cc(OC)c(OC)c(OC)c2)cc(OC)c1OC (some centres not stated)	> 100	> 100	> 100	> 100	> 100		> 100	> 100	> 100	> 100										
COc1cc(-c2oc3c(OC)c(O)c(OC)c(O)c3c(=O)c2OC)ccc1O	> 100	> 100	> 100	> 100	> 100	> 100	> 100	98.9	> 100											
N#C[S-].[Au+].c1ccc(CN2[CH-]N(Cc3ccccc3)C(c3ccccc3)=C2c2ccccc2)cc1	1.91			2.34		1.15		1.98		1	0.444	0.414	0.292	0.284	0.583					
O=C1C(=O)c2ccccc2C(O)=C1CCCCCCCCC1CCCCC1	18.9	15.6	22.7		12.1	10.2	22.3	38.7	72.8											
CC(C)C[C@@H]1NC(=O)[C@@H]2CCCN2C(=O)[C@@H]2CCCN2C(=O)[C@H](CC(C)C)NC(=O)[C@H](CO)NC(=O)[C@H](CCCCN)NC(=O)[C@H]([C@H](C)O)NC(=O)[C@@H]2CCCC[C@@H](NC1=O)C(=O)N[C@@H](Cc1ccccc1)C(=O)N1CCC[C@H]1C(=O)N[C@@H](CC(=O)O)C(=O)NCC(=O)N[C@@H](CCCN=C(N)N)C(=O)N2	> 50	> 50	> 50		> 50	> 50	> 50	> 50	> 50	> 50	> 50		> 50	> 50	> 50	> 50	> 50	> 50	> 50	> 50
CN1CCn2c(c(Sc3ccc(C(=O)NO)cc3)c3ccccc32)C1=O	3.64	8.72	3.87	32	> 100		5.58	5.29	3.56	3.53	1.89	3.16	1.67		2.09	2.63	1.69	3.77	2.13	1.51
NC(CCSC(F)F)C(=O)O (configuration not stated)	> 100	> 100	> 100		> 100	> 100	> 100	> 100		> 100										
CC12CC3CC(C1)CC(N=[N+]=[N-])(C3)C2	> 100	> 100	> 100		> 100	> 100	> 100	> 100	> 100	> 100										
O=C(CN1C(=O)c2ccccc2C1=O)C(O)CN1C(=O)c2ccccc2C1=O (configuration not stated)	> 100	49.3	> 100	> 100			> 100	> 100	> 100	> 100										
Cc1ccc(/C=C2\CCCC\C2=N\O)cc1	> 100	> 100	> 100	30.7	> 100		> 100	> 100												
Clc1nc(Cl)c(Cc2ccccc2)c(Cl)n1	10.4	32	22.6	> 100	> 100	63.2	32	32.2												
CSC1C(=O)c2ccccc2/C(=N/Nc2nc3ccccc3s2)C1C (configuration not stated)	19.7	11.7	21.1	43	4.55		14.2	42	18.9	25.2	10.1	2.14	7.93		15.6	5.65	9.63	1.7	7.26	8.87
COc1cc([N+](=O)[O-])c(OC)cc1-c1nc2sc(Cl)cn2c1/C=N/NC(=N)N/N=C/c1c(-c2cc(OC)c([N+](=O)[O-])cc2OC)nc2sc(Cl)cn12	3.29	4.88	4.08			3.28					1.84			1.61		2.23	1.89			
